Values quoted from earlier work, collected in patent publication US20120295796A1, “System and Method of Predicting Chemical Interaction and Functionality of Molecules” (VASSA INFORMATICS, priority 2010, published 2012).

Tests used:
EGFR = EGFR (Homo sapiens, UniProt P00533); settings: search utilizing the entire binding site
HMG-CoA reductase = biological target: T1, HMG-CoA reductase (Homo sapiens, UniProt P04035); settings: hit of Lipitor search, not structurally similar to Lipitor
T1 sequence (P04035 426-888 limits assumed): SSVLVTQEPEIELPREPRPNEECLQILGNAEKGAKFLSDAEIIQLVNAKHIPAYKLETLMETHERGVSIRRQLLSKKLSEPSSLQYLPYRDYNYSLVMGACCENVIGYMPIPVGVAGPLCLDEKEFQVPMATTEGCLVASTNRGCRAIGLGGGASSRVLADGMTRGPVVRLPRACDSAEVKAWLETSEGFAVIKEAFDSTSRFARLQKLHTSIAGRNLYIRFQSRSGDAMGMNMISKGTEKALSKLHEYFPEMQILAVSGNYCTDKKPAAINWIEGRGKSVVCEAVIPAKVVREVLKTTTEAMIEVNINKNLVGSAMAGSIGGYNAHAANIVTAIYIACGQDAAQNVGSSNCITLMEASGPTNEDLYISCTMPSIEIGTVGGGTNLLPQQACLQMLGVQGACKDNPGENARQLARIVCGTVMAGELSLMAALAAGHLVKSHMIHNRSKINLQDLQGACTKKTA

Chain of EGFR (P00533 25-1210): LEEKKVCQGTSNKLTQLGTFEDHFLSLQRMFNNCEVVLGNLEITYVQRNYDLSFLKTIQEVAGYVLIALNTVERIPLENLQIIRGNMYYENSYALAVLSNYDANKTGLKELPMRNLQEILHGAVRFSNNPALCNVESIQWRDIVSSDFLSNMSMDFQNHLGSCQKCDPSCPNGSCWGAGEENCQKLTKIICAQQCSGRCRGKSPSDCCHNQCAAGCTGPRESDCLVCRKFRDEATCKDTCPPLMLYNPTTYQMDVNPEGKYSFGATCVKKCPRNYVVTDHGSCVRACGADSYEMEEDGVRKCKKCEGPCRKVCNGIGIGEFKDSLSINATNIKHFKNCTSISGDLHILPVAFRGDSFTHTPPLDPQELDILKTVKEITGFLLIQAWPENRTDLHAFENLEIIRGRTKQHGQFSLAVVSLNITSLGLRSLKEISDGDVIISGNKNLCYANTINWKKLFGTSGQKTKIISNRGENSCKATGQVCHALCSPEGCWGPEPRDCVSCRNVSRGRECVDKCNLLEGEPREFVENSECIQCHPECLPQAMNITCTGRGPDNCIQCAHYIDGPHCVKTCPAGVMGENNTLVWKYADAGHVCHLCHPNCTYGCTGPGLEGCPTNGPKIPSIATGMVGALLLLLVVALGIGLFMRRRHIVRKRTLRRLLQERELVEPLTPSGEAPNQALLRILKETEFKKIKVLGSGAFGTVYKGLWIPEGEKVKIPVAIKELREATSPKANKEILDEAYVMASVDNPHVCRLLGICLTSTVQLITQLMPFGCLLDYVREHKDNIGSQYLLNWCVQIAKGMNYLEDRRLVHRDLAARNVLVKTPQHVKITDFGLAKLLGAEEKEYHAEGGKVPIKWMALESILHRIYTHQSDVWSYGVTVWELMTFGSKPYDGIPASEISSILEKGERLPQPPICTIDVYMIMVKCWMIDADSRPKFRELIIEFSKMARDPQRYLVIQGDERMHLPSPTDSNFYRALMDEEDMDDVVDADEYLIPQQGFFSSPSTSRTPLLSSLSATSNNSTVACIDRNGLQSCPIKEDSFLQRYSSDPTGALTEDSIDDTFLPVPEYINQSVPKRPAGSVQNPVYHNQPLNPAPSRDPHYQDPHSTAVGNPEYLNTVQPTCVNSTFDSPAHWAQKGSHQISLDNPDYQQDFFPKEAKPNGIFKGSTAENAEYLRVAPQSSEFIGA

Nc1ncnc2c1ncn2[C@@H]1O[C@H](COP(=O)(O)OP(=O)(O)O)[C@@H](O)[C@H]1O [ADP]
binder status at the Tarceva binding site (ADP binding site) (EGFR): already known or suspected as binders

Nc1ncnc2c1ncn2[C@@H]1O[C@H](COP(=O)(O)OP(=O)(O)OP(=O)(O)O)[C@@H](O)[C@H]1O [ATP]
binder status at the Tarceva binding site (ADP binding site) (EGFR): already known or suspected as binders

Nc1ncnc2c1ncn2[C@@H]1O[C@H](COP(=O)(O)O)[C@@H](O)[C@H]1O [AMP]
binder status at the Tarceva binding site (ADP binding site) (EGFR): already known or suspected as binders

CC(C)(COP(=O)(O)OP(=O)(O)OC[C@H]1O[C@@H](n2cnc3c(N)ncnc32)[C@H](O)[C@@H]1OP(=O)(O)O)[C@@H](O)C(=O)NCCC(=O)NCCS [Coenzyme A]
known binding to HMG-CoA reductase (search result category Known Binders) (HMG-CoA reductase): binds HinG-CoA reductase
